In PubChem BioAssay (NCI):
“And” between values parts separate entries of the source, which are not always exact repeats. Equal entries are not always repeated.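 Compound exposure: 48 hours, 5 concentrations, 96-well plates. At the GI50, growth is halved. Definition used: TGI = concentration required for complete inhibition of growth.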

Key:
Assay in all cases: NCI-60 cell line screen, 48 h
NCI-H23 lung = system: NCI-H23 lung
CAKI-1 renal = system: CAKI-1 renal
HOP-92 NSCLC = system: HOP-92 NSCLC
SK-MEL-28 melanoma = system: SK-MEL-28 melanoma
ACHN renal = system: ACHN renal
HOP-62 NSCLC = system: HOP-62 NSCLC
HCC-2998 colon = system: HCC-2998 colon
A549 NSCLC = system: A549 NSCLC
HT29 colon = system: HT29 colon
T-47D breast = system: T-47D breast
COLO 205 colon = system: COLO 205 colon
UACC-257 melanoma = system: UACC-257 melanoma
M14 melanoma = system: M14 melanoma
UACC-62 melanoma = system: UACC-62 melanoma
MDA-MB-435 = system: MDA-MB-435
NCI/ADR-RES ovarian = system: NCI/ADR-RES ovarian
K-562 leukemia = system: K-562 leukemia
PC-3 prostate = system: PC-3 prostate
LOX IMVI melanoma = system: LOX IMVI melanoma
U251 CNS = system: U251 CNS
HCT-116 colon = system: HCT-116 colon
SR leukemia = system: SR leukemia
MCF7 breast = system: MCF7 breast
SK-MEL-2 melanoma = system: SK-MEL-2 melanoma
CCRF-CEM leukemia = system: CCRF-CEM leukemia
SW-620 colon = system: SW-620 colon
NCI-H226 lung = system: NCI-H226 lung
SF-268 CNS = system: SF-268 CNS
SK-MEL-5 melanoma = system: SK-MEL-5 melanoma
DU-145 prostate = system: DU-145 prostate
HS 578T breast = system: HS 578T breast
SNB-19 CNS = system: SNB-19 CNS
SF-295 CNS = system: SF-295 CNS
KM12 colon = system: KM12 colon
MDA-MB-231 breast = system: MDA-MB-231 breast
MALME-3M melanoma = system: MALME-3M melanoma
HL-60(TB) leukemia = system: HL-60(TB) leukemia
RPMI-8226 leukemia = system: RPMI-8226 leukemia
786-0 renal = system: 786-0 renal
SN12C renal = system: SN12C renal
SF-539 CNS = system: SF-539 CNS
OVCAR-8 ovarian = system: OVCAR-8 ovarian
SNB-75 CNS = system: SNB-75 CNS
NCI-H522 lung = system: NCI-H522 lung
OVCAR-3 ovarian = system: OVCAR-3 ovarian
UO-31 renal = system: UO-31 renal
HCT-15 colon = system: HCT-15 colon
TK-10 renal = system: TK-10 renal
EKVX NSCLC = system: EKVX NSCLC
MDA-N = system: MDA-N
SK-OV-3 ovarian = system: SK-OV-3 ovarian
OVCAR-5 ovarian = system: OVCAR-5 ovarian

CCC1(O)CC(OC2CC(N(C)C)C(OC3CC(O)C(OC4OC(C)C(=O)C=C4N)C(C)O3)C(C)O2)c2c(cc3c(c2O)C(=O)c2c(O)cccc2C3=O)C1C(=O)OC (configuration not stated)
GI50 (NCI-H23 lung): 14.4 nM
TGI (NCI-H23 lung): 2950 nM
TGI (CAKI-1 renal): 308 nM and 36.5 nM
GI50 (HOP-92 NSCLC): 37.7 nM
TGI (HOP-92 NSCLC): 1410 nM and 2800 nM
TGI (SK-MEL-28 melanoma): 363 nM and 189 nM
TGI (ACHN renal): 312 nM and 895 nM
TGI (HOP-62 NSCLC): 1140 nM and 344 nM
TGI (HCC-2998 colon): 82.4 nM and 29.4 nM
TGI (A549 NSCLC): 1630 nM
TGI (HT29 colon): 431 nM and 1240 nM
GI50 (T-47D breast): 22.1 nM
TGI (T-47D breast): 657 nM and 1790 nM
TGI (COLO 205 colon): 338 nM and 766 nM
TGI (UACC-257 melanoma): 553 nM and 356 nM
TGI (M14 melanoma): 656 nM
TGI (UACC-62 melanoma): 170 nM and 32.4 nM
TGI (MDA-MB-435): 282 nM and 50 nM
GI50 (NCI/ADR-RES ovarian): 1860 nM
TGI (NCI/ADR-RES ovarian): 5500 nM and 27000 nM
TGI (K-562 leukemia): 262 nM and 1730 nM
TGI (PC-3 prostate): 333 nM and 1100 nM
TGI (LOX IMVI melanoma): 1480 nM and 1560 nM
TGI (U251 CNS): 1500 nM and 1550 nM
TGI (HCT-116 colon): 1790 nM
TGI (SR leukemia): 1060 nM
TGI (MCF7 breast): 756 nM and 2640 nM
TGI (SK-MEL-2 melanoma): 104 nM and 11.8 nM
TGI (CCRF-CEM leukemia): 131 nM and 818 nM
TGI (SW-620 colon): 1760 nM and 1200 nM
GI50 (NCI-H226 lung): 16.1 nM
TGI (NCI-H226 lung): 347 nM and 89.4 nM
GI50 (SF-268 CNS): 12.7 nM
TGI (SF-268 CNS): 2890 nM and 1380 nM
TGI (SK-MEL-5 melanoma): 179 nM and 101 nM
TGI (DU-145 prostate): 1700 nM and 1710 nM
GI50 (HS 578T breast): 57.9 nM
TGI (HS 578T breast): 594 nM and 4100 nM
TGI (SNB-19 CNS): 2050 nM
TGI (SF-295 CNS): 1530 nM and 1130 nM
TGI (KM12 colon): 1130 nM and 1500 nM
GI50 (MDA-MB-231 breast): 36.9 nM
TGI (MDA-MB-231 breast): 2030 nM and 2090 nM
GI50 (MALME-3M melanoma): 20.8 nM
TGI (MALME-3M melanoma): 233 nM and 137 nM
TGI (HL-60(TB) leukemia): 500 nM and 79 nM
TGI (RPMI-8226 leukemia): 154 nM and 59.7 nM
TGI (786-0 renal): 97.1 nM
GI50 (SN12C renal): 92.4 nM
TGI (SN12C renal): 1510 nM and 2290 nM
TGI (SF-539 CNS): 502 nM and 1400 nM
TGI (OVCAR-8 ovarian): 1590 nM and 1320 nM
TGI (SNB-75 CNS): 555 nM
TGI (NCI-H522 lung): 319 nM
TGI (OVCAR-3 ovarian): 1180 nM and 624 nM
GI50 (UO-31 renal): 106 nM
TGI (UO-31 renal): 960 nM and 809 nM
GI50 (HCT-15 colon): 471 nM
TGI (HCT-15 colon): 1660 nM and 11800 nM
GI50 (TK-10 renal): 39.8 nM
TGI (TK-10 renal): 1100 nM and 2310 nM
GI50 (EKVX NSCLC): 32.7 nM
TGI (EKVX NSCLC): 539 nM and 1430 nM
TGI (MDA-N): 207 nM and 139 nM
TGI (SK-OV-3 ovarian): 2510 nM and 4320 nM
GI50 (OVCAR-5 ovarian): 15.2 nM
TGI (OVCAR-5 ovarian): 1370 nM and 2040 nM
